Laboratory results: patent US20250375406A1, “TREATMENT OF NON-ALCOHOLIC STEATOHEPATITIS AND NON-ALCOHOLIC FATTY LIVER DISEASE” (VEROSCIENCE LLC, priority 2022, published 2025)

Columns and labels:
[1] = system: NASH; test: L-DOPA plus pantethine with or without curcumin in high fat high fructose diet mice, Study 2 (Example 4); format: in vivo; conditions: vehicle value assigned 1.0 (maximum score); 3 weeks treatment
Text: After 3 weeks on the test diet, animals were sacrificed for analyses of body weight, body fat, blood glucose, and liver physiology.

[2] = system: NASH Mice; test: Treatment of NASH mice (high fat high fructose diet) with bromocriptine citrate plus pantethine with or without curcumin, Study 1; format: in vivo; conditions: vehicle value assigned 1.0 (maximum score); 6 weeks treatment
Procedure: The curcumin-phosphatidylcholine mixture is stirred until clear while being heated to between 50° C. to 60C. Optionally, add up to 10 ml of water and stir until solution is homogeneous)) (100 mg/kg). […] After 6 weeks on the test diet and treatment, animals were sacrificed for analyses of body weight, body fat, blood glucose, and liver physiology.

| SMILES | NASH propensity score (liver weight x body weight x body fat x blood glucose level) [1] | NASH propensity scale score (liver weight x body weight x body fat x liver triglyceride content x blood glucose level) [2] |
| --- | --- | --- |
| N[C@@H](Cc1ccc(O)c(O)c1)C(=O)O [L-DOPA, 3,4-dihydroxyphenylalanine] | 0.61 |  |
| CC(C)C[C@H]1C(=O)N2CCC[C@H]2[C@]2(O)O[C@](NC(=O)[C@@H]3C=C4c5cccc6[nH]c(Br)c(c56)C[C@H]4N(C)C3)(C(C)C)C(=O)N12 [bromocriptine, 2-bromo-α-ergocriptine] |  | 0.46 |
